Consider 1 compound from PMC10176470, “Engaging a Non-catalytic Cysteine Residue Drives Potent and Selective Inhibition of Caspase-6” (Journal of the American Chemical Society, 2023).

The target in the assay is proteins of HEK293T cells transiently overexpressing caspase-6 (Homo sapiens, UniProt P49591). Type of assay: cell-based. The following applies: exp_ref Probe; protein SARS (P49591); analysis C6.
Sequence of proteins of HEK293T cells transiently overexpressing caspase-6 (P49591 whole entry, looked up): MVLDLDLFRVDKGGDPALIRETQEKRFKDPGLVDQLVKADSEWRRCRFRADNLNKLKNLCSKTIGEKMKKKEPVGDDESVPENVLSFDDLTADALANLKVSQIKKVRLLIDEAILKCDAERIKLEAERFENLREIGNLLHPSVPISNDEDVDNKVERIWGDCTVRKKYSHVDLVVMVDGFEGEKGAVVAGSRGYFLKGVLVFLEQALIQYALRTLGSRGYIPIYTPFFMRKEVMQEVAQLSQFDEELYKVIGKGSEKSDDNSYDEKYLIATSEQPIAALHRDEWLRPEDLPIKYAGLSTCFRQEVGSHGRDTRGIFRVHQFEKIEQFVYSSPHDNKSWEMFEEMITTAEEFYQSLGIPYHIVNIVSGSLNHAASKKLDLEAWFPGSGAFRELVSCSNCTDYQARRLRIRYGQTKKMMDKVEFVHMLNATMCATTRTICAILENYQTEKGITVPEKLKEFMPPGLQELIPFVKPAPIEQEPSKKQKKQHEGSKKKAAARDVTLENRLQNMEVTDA

Consider `C#CCOc1ccc([C@@H]2C[C@@H](C(=O)Nc3ccc(OC(F)(F)F)cc3)CN(S(=O)(=O)C=C)C2)cc1` (relative stereo) [13-t], for which the enrich.exp.med is on record as 0.8697.
